# Data taken from patent US9776995B2, “Bicyclic sulfonamide compounds as sodium channel inhibitors” (AMGEN INC., priority 2013, dated 2017).
# Like-named read-outs stand apart in the source and are kept apart here.
# Legend:
# Nav 1.7 = Nav 1.7 (Homo sapiens (Human), UniProt Q15858); assay: in-vitro Nav 1.7 PX data; format: cell-based
# Nav 1.5 = Nav 1.5 (Homo sapiens (Human), UniProt Q14524); assay: in-vitro Nav 1.5 PX data; details: read-out: Nav 1.5 PX IC50
# Sequence of Nav 1.5 (Q14524 whole entry): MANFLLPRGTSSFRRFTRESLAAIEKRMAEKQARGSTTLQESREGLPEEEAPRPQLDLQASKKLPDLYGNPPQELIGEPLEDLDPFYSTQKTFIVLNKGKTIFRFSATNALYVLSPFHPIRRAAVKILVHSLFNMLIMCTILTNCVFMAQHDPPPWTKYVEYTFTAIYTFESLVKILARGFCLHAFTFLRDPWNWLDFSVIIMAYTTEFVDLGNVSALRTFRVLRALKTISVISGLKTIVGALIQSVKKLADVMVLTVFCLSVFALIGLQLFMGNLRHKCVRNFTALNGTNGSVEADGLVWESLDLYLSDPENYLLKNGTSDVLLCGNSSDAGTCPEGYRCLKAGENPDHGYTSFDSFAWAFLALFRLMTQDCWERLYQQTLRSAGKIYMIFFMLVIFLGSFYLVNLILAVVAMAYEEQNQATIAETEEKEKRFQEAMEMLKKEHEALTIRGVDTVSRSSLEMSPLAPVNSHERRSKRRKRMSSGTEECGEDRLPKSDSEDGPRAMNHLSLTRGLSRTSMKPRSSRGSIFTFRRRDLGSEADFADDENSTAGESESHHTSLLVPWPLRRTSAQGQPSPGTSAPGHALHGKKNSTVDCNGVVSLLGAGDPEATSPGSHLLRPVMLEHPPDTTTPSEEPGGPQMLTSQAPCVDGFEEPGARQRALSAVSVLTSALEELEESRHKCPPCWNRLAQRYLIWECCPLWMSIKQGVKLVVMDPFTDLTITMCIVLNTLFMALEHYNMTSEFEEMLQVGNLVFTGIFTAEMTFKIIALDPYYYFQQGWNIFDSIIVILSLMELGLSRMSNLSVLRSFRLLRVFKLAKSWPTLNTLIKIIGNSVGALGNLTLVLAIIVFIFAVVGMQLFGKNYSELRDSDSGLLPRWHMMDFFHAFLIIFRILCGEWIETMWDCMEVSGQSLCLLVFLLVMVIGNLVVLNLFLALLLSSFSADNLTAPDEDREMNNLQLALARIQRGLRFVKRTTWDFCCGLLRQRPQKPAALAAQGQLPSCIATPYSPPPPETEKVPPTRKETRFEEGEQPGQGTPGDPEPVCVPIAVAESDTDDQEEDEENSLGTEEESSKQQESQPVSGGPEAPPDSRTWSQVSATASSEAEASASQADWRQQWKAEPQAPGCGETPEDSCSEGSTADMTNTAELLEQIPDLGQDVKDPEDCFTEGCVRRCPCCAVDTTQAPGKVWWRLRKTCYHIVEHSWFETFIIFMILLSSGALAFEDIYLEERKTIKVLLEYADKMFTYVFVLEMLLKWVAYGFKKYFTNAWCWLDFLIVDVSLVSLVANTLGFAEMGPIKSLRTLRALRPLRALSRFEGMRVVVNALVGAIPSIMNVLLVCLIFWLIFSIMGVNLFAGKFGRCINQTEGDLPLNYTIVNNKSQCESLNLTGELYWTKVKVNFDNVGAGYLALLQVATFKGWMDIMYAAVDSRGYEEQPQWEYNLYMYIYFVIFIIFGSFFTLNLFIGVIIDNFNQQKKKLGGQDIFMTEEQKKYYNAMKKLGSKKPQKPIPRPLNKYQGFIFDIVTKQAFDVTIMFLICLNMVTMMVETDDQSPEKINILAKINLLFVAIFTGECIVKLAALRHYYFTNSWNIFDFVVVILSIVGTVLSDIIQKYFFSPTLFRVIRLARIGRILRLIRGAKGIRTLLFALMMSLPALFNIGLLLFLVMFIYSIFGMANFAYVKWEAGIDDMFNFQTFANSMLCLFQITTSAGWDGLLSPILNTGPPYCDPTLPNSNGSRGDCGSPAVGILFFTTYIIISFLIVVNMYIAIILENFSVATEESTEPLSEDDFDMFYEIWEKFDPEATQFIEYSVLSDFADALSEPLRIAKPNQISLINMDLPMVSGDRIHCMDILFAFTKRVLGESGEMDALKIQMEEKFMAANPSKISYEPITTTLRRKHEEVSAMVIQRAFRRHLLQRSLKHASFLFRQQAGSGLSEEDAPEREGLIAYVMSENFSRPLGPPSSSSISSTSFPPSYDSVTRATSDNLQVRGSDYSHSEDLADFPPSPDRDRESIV
# Sequence of Nav 1.7 (Q15858 whole entry): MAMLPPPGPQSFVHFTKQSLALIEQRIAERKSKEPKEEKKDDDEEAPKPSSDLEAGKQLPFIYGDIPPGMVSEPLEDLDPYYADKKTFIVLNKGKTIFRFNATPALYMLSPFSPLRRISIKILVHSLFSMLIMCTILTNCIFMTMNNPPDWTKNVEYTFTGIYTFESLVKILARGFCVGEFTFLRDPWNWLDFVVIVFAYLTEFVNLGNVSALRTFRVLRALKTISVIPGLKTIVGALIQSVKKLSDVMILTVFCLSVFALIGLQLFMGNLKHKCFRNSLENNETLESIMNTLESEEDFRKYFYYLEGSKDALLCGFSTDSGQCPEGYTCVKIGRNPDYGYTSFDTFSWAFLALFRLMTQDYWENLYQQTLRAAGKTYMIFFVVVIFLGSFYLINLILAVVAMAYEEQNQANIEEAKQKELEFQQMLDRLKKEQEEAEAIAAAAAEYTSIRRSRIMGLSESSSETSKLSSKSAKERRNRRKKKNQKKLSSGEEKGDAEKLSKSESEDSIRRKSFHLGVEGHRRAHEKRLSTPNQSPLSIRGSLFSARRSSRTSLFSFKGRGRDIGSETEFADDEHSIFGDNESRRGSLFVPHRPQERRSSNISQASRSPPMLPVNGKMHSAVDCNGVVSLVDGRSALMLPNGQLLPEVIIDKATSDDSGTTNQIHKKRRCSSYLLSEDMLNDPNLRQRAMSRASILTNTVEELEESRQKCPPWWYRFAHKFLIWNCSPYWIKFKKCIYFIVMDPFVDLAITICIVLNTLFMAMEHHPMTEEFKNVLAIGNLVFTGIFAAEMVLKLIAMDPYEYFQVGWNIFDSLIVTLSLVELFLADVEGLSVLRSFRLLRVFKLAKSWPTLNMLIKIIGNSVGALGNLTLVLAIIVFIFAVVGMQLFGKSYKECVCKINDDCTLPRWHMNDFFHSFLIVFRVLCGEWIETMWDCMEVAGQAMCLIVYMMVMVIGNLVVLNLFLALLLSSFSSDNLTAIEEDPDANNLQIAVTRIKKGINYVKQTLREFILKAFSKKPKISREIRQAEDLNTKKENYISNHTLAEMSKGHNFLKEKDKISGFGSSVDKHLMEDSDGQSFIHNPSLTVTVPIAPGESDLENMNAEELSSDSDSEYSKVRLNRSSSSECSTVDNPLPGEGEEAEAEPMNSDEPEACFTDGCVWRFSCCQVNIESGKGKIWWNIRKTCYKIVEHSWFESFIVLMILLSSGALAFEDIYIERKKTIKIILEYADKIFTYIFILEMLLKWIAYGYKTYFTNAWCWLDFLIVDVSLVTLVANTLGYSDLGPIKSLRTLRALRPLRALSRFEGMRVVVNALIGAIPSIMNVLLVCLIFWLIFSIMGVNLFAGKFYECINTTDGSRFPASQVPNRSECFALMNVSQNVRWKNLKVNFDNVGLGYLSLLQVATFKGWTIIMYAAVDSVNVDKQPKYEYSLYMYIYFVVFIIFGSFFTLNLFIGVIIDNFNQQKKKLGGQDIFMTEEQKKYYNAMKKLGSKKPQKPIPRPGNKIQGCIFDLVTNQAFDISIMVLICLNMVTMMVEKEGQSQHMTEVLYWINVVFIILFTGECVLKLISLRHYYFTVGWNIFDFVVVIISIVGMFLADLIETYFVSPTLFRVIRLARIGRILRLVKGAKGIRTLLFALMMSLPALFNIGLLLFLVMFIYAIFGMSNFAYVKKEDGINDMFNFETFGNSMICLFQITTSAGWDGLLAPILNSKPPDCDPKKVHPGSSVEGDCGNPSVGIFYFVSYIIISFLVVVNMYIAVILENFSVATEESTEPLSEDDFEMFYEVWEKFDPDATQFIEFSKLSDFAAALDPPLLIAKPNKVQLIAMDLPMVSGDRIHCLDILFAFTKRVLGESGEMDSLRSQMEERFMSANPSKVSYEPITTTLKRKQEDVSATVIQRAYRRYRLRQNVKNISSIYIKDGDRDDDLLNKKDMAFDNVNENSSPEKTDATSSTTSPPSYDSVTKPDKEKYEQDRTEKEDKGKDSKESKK
compound,measurement,setting,value
COc1cc(-c2ccccc2)ccc1-c1nccc2cc(S(=O)(=O)Nc3nncs3)ccc12 [Example 50],IC50,"Nav 1.7; PatchXpress (PX), in vitro",174 nM
same,IC50,"Nav 1.5; PatchXpress (PX), in vitro",> 10 µM
"COc1cc(-c2ccc(Cl)c(F)c2)c(C#N)cc1-c1nccc2cc(S(=O)(=O)Nc3ccon3)ccc12 [Example 76, 1-(4′-chloro-2-cyano-3′-fluoro-5-methoxy-4-biphenylyl)-N-3-isoxazolyl-6-isoquinolinesulfonamide]",IC50,"Nav 1.7; PatchXpress (PX), in vitro",58.5 nM
same,IC50,"Nav 1.5; PatchXpress (PX), in vitro",> 10 µM
"COc1cc(-c2ccc(C)c(Cl)c2)c(C#N)cc1-c1nccc2cc(S(=O)(=O)Nc3nncs3)ccc12 [Example 229, 1-(3′-chloro-2-cyano-5-methoxy-4′-methyl-4-biphenylyl)-N-1,3,4-thiadiazol-2-yl-6-isoquinolinesulfonamide]",IC50,Nav 1.7; in-vitro PX,20.5 nM
same,IC50,Nav 1.5; in-vitro PX,> 10 µM
"COc1cc(-c2ccc(C)c(Cl)c2)c(C#N)cc1-c1nccc2cc(S(=O)(=O)Nc3ccon3)ccc12 [Example 78, 1-(3′-chloro-2-cyano-5-methoxy-4′-methyl-4-biphenylyl)-N-3-isoxazolyl-6-isoquinolinesulfonamide]",IC50,"Nav 1.7; PatchXpress (PX), in vitro",33 nM
same,IC50,"Nav 1.5; PatchXpress (PX), in vitro",> 10 µM
"O=S(=O)(Nc1ccon1)c1ccc2c(-c3ccc(-c4cccc(C(F)(F)F)c4)cc3CO)nccc2c1 [Example 146, 1-(3-(hydroxymethyl)-3′-(trifluoromethyl)-4-biphenylyl)-N-3-isoxazolyl-6-isoquinolinesulfonamide]",IC50,Nav 1.7; in-vitro Nav 1.7 PX data,120 nM
same,IC50,Nav 1.5; in-vitro Nav 1.5 PX data,> 10 µM
"COc1cc(-c2cc(F)cc(F)c2)ccc1-c1nccc2cc(S(=O)(=O)Nc3nc(C)ns3)ccc12 [Example 130, 1-(3′,5′-difluoro-3-methoxy-4-biphenylyl)-N-(3-methyl-1,2,4-thiadiazol-5-yl)-6-isoquinolinesulfonamide]",IC50,Nav 1.7; in-vitro PX data,1040 nM
same,IC50,Nav 1.5; in-vitro PX data,> 30 µM
"COc1cc(-c2cccc(F)c2)c(Cl)cc1-c1nncc2cc(S(=O)(=O)Nc3nncs3)ccc12 [Example 9, 1-(2-CHLORO-3′-FLUORO-5-METHOXY-[1,1′-BIPHENYL]-4-YL)-N-(1,3,4-THIADIAZOL-2-YL)PHTHALAZINE-6-SULFONAMIDE]",IC50,Nav 1.7; in-vitro PX data,112 nM
same,IC50,Nav 1.5; in-vitro PX data,> 10 µM
"COc1cc(-c2cc(F)cnc2OC)ccc1-c1nccc2cc(S(=O)(=O)Nc3ccon3)ccc12 [Example 31, 1-(4-(5-FLUORO-2-METHOXYPYRIDIN-3-YL)-2-METHOXYPHENYL)-N-(ISOXAZOL-3-YL)ISOQUINOLINE-6-SULFONAMIDE]",IC50,Nav 1.7; in-vitro PX (PatchXpress) data,169 nM
same,IC50,Nav 1.5; in-vitro PX (PatchXpress) data,> 10 µM
"1-(2-cyano-5-methoxy-2′-methyl-4-biphenylyl)-N-1,3,4-thiadiazol-2-yl-6-isoquinolinesulfonamide [Example 220]",IC50,Nav 1.7; in-vitro PX,40.1 nM
same,IC50,Nav 1.5; in-vitro PX,> 10 µM
"COc1cc(-c2cccc(F)c2)c(Cl)cc1-c1nccc2cc(S(=O)(=O)Nc3cccnn3)ccc12 [Example 120, 1-(2-chloro-3′-fluoro-5-methoxy-4-biphenylyl)-N-3-pyridazinyl-6-isoquinolinesulfonamide]",IC50,Nav 1.7; in-vitro PX data,141 nM
same,IC50,Nav 1.5; in-vitro PX data,> 10 µM
"COc1cc(-c2cccc(C(F)(F)F)c2)c(C#N)cc1-c1ncnc2cc(S(=O)(=O)Nc3nncs3)ccc12 [Example 226, 4-(2-cyano-5-methoxy-3′-(trifluoromethyl)-4-biphenylyl)-N-1,3,4-thiadiazol-2-yl-7-quinazolinesulfonamide]",IC50,Nav 1.7; in-vitro PX,11.6 nM
same,IC50,Nav 1.5; in-vitro PX,> 10 µM
"COc1cc(-c2cccc(F)c2)c(Cl)cc1-c1nn(C)c(=O)c2cc(S(=O)(=O)Nc3nncs3)ccc12 [Example 215, 1-(2-chloro-3′-fluoro-5-methoxy-4-biphenylyl)-3-methyl-4-oxo-N-1,3,4-thiadiazol-2-yl-3,4-dihydro-6-phthalazinesulfonamide]",IC50,Nav 1.7; in-vitro PX,82.3 nM
same,IC50,Nav 1.5; in-vitro PX,> 10 µM
"COc1cc(-c2cc(F)cnc2OC)c(C)cc1-c1ncnc2cc(S(=O)(=O)Nc3ccon3)ccc12 [Example 198, 4-(4-(5-fluoro-2-methoxy-3-pyridinyl)-2-methoxy-5-methylphenyl)-N-3-isoxazolyl-7-quinazolinesulfonamide]",IC50,Nav 1.7; in-vitro PX (PatchXpress) data,183 nM
same,IC50,Nav 1.5; in-vitro PX (PatchXpress) data,> 10 µM
"COc1cc(-c2cccc(F)c2)c(C#N)cc1-c1nccc2cc(S(=O)(=O)Nc3ccncn3)ccc12 [Example 144, 1-(2-cyano-3′-fluoro-5-methoxy-4-biphenylyl)-N-4-pyrimidinyl-6-isoquinolinesulfonamide]",IC50,Nav 1.7; in-vitro Nav 1.7 PX data,106 nM
same,IC50,Nav 1.5; in-vitro Nav 1.5 PX data,> 10 µM
"COc1cc(-c2cc(F)cc(F)c2)ccc1-c1nccc2cc(S(=O)(=O)Nc3ncco3)ccc12 [Example 137, 1-(3′,5′-difluoro-3-methoxy-4-biphenylyl)-N-1,3-oxazol-2-yl-6-isoquinolinesulfonamide]",IC50,Nav 1.7; in-vitro PX data,360 nM
same,IC50,Nav 1.5; in-vitro PX data,> 10 µM
"COc1cc(Oc2cc(F)ccc2F)ccc1-c1nccc2cc(S(=O)(=O)Nc3nncs3)ccc12 [Example 187, 1-(4-(2,5-difluorophenoxy)-2-methoxyphenyl)-N-1,3,4-thiadiazol-2-yl-6-isoquinolinesulfonamide]",IC50,Nav 1.7; in-vitro PX (PatchXpress) data,99.4 nM
same,IC50,Nav 1.5; in-vitro PX (PatchXpress) data,> 10 µM
"COc1cc(-c2cc(F)cc(F)c2)c(C)cc1-c1nccc2cc(S(=O)(=O)Nc3nncs3)ccc12 [Example 172, 1-(3′,5′-difluoro-5-methoxy-2-methyl-4-biphenylyl)-N-1,3,4-thiadiazol-2-yl-]",IC50,Nav 1.7; in-vitro Nav 1.7 PX data,34.9 nM
same,IC50,Nav 1.5; in-vitro Nav 1.5 PX data,> 10 µM
"COc1cc(-c2ccc(C)c(F)c2)c(C#N)cc1-c1nccc2cc(S(=O)(=O)Nc3ccncn3)ccc12 [Example 163, 1-(2-cyano-3′-fluoro-5-methoxy-4′-methyl-4-biphenylyl)-N-4-pyrimidinyl-6-isoquinolinesulfonamide]",IC50,Nav 1.7; in-vitro Nav 1.7 PX data,92.1 nM
same,IC50,Nav 1.5; in-vitro Nav 1.5 PX data,> 10 µM
"COc1cc(-c2cccc(F)c2)c(Cl)cc1-c1nccc2cc(S(=O)(=O)Nc3ccon3)c(F)cc12 [Example 43, 1-(2-CHLORO-3′-FLUORO-5-METHOXY-[1,1′-BIPHENYL]-4-YL)-7-FLUORO-N-(ISOXAZOL-3-YL)ISOQUINOLINE-6-SULFONAMIDE]",IC50,"Nav 1.7; PatchXpress (PX), in vitro",45.6 nM
same,IC50,"Nav 1.5; PatchXpress (PX), in vitro",> 10 µM
"COc1cc(-c2cccc(C)c2)c(C#N)cc1-c1nccc2cc(S(=O)(=O)Nc3ccon3)ccc12 [Example 112, 1-(2-cyano-5-methoxy-3′-methyl-4-biphenylyl)-N-3-isoxazolyl-6-isoquinolinesulfonamide]",IC50,Nav 1.7; in-vitro PX data,39.5 nM
same,IC50,Nav 1.5; in-vitro PX data,> 10 µM
"COc1ccc(Oc2ccc(-c3nccc4cc(S(=O)(=O)Nc5ccncn5)ccc34)c(OC)c2)cc1 [Example 182, 1-(2-methoxy-4-(4-methoxyphenoxy)phenyl)-N-4-pyrimidinyl-6-isoquinolinesulfonamide]",IC50,Nav 1.7; in-vitro PX (PatchXpress) data,305 nM
same,IC50,Nav 1.5; in-vitro PX (PatchXpress) data,> 10 µM
1-(2-chloro-3′-fluoro-5-methoxy-4-biphenylyl)-N-2-pyrimidinyl-6-isoquinolinesulfonamide [Example 108],IC50,Nav 1.7; in-vitro PX data,86.2 nM
same,IC50,Nav 1.5; in-vitro PX data,> 10 µM
"COc1nc(N2CCC(F)(F)CC2)c(Cl)cc1-c1nccc2cc(S(=O)(=O)Nc3nncs3)ccc12 [Example 244, 1-(5-chloro-6-(4,4-difluoro-1-piperidinyl)-2-methoxy-3-pyridinyl)-N-1,3,4-thiadiazol-2-yl-6-isoquinolinesulfonamide]",IC50,Nav 1.7; in-vitro PX,424 nM
same,IC50,Nav 1.5; in-vitro PX,> 30 µM
"COc1cc(-c2cccc(Cl)c2)c(C#N)cc1-c1nccc2cc(S(=O)(=O)Nc3ccon3)ccc12 [Example 111, 1-(3′-chloro-2-cyano-5-methoxy-4-biphenylyl)-N-3-isoxazolyl-6-isoquinolinesulfonamide]",IC50,Nav 1.7; in-vitro PX data,21.8 nM
same,IC50,Nav 1.5; in-vitro PX data,> 10 µM
"COc1cc(-c2ccc(F)cc2)c(C#N)cc1-c1nccc2cc(S(=O)(=O)Nc3ccon3)ccc12 [Example 106, 1-(2-cyano-4′-fluoro-5-methoxy-4-biphenylyl)-N-3-isoxazolyl-6-isoquinolinesulfonamide]",IC50,Nav 1.7; in-vitro PX data,62.5 nM
same,IC50,Nav 1.5; in-vitro PX data,> 10 µM
"COc1cc(-c2ccc(Cl)c(C)c2)c(C#N)cc1-c1nccc2cc(S(=O)(=O)Nc3ccncn3)ccc12 [Example 161, 1-(4′-chloro-2-cyano-5-methoxy-3′-methyl-4-biphenylyl)-N-4-pyrimidinyl-6-isoquinolinesulfonamide]",IC50,Nav 1.7; in-vitro Nav 1.7 PX data,17.4 nM
same,IC50,Nav 1.5; in-vitro Nav 1.5 PX data,> 30 µM
"COc1cc(-c2ccc(F)c(Cl)c2)c(C#N)cc1-c1nccc2cc(S(=O)(=O)Nc3ccon3)ccc12 [Example 84, 1-(3′-chloro-2-cyano-4′-fluoro-5-methoxy-4-biphenylyl)-N-3-isoxazolyl-6-isoquinolinesulfonamide]",IC50,"Nav 1.7; PatchXpress (PX), in vitro",14.7 nM
same,IC50,"Nav 1.5; PatchXpress (PX), in vitro",> 10 µM
"COc1cc(-c2cccc(C(F)(F)F)c2)c(C#N)cc1-c1nccc2cc(S(=O)(=O)Nc3ccncn3)ccc12 [Example 184, 1-(2-cyano-5-methoxy-3′-(trifluoromethyl)-4-biphenylyl)-N-4-pyrimidinyl-6-isoquinolinesulfonamide]",IC50,Nav 1.7; in-vitro PX (PatchXpress) data,36.3 nM
same,IC50,Nav 1.5; in-vitro PX (PatchXpress) data,> 30 µM
"COc1cc(-c2cc(C)cc(F)c2)c(C#N)cc1-c1nccc2cc(S(=O)(=O)Nc3nncs3)ccc12 [Example 222, 1-(2-cyano-3′-fluoro-5-methoxy-5′-methyl-4-biphenylyl)-N-1,3,4-thiadiazol-2-yl-6-isoquinolinesulfonamide]",IC50,Nav 1.7; in-vitro PX,21.8 nM
same,IC50,Nav 1.5; in-vitro PX,> 10 µM
"COc1cc(Cl)c(-c2cccc(F)c2)cc1-c1nccc2cc(S(=O)(=O)Nc3ccon3)ccc12 [Example 121, 1-(6-chloro-3′-fluoro-4-methoxy-3-biphenylyl)-N-3-isoxazolyl-6-isoquinolinesulfonamide]",IC50,Nav 1.7; in-vitro PX data,91.7 nM
same,IC50,Nav 1.5; in-vitro PX data,> 10 µM
"COc1cc(-c2cccc(F)c2)c(Cl)cc1-c1ncnc2cc(S(=O)(=O)Nc3ncccn3)ccc12 [Example 243, 4-(2-chloro-3′-fluoro-5-methoxy-4-biphenylyl)-N-2-pyrimidinyl-7-quinazolinesulfonamide]",IC50,Nav 1.7; in-vitro PX,80.3 nM
same,IC50,Nav 1.5; in-vitro PX,> 10 µM
"COc1cc(Oc2ccc(C)c(C)c2)ccc1-c1nccc2cc(S(=O)(=O)Nc3ccncn3)ccc12 [Example 176, 1-(4-(3,4-dimethylphenoxy)-2-methoxyphenyl)-N-4-pyrimidinyl-6-isoquinolinesulfonamide]",IC50,Nav 1.7; in-vitro PX (PatchXpress) data,204 nM
same,IC50,Nav 1.5; in-vitro PX (PatchXpress) data,> 10 µM
